# Target: T1, mouse TRPV2 (Mus musculus, UniProt Q9WTR1)
# T1 construct: expressed in transfected cells; host or cells: HEK293
# T1 sequence (Q9WTR1 1-756): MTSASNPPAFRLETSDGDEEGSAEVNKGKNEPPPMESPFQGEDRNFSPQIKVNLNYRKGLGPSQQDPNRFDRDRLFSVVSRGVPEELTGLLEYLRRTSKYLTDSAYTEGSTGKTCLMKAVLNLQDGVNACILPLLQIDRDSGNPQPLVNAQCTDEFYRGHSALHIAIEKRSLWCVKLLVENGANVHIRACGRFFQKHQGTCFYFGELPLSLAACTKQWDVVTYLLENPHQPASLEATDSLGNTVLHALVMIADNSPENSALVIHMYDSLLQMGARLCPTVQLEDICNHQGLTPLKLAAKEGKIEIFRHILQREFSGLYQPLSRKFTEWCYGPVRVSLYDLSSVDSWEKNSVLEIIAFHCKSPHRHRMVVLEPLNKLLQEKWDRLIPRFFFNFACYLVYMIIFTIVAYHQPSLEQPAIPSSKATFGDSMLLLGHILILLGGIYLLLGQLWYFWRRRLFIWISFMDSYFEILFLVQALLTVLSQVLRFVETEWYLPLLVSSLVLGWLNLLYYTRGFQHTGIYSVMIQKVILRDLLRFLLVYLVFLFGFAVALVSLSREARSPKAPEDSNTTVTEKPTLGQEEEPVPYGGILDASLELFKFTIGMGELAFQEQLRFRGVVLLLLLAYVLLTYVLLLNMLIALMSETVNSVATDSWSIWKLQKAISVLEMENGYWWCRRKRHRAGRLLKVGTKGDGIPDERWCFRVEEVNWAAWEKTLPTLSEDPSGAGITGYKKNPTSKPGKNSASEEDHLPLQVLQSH
# Assay: fluo-4 Ca2+ assay selectivity, HEK cells expressing mouse TRPV2
# Type: cell-based
# Details: concentrations up to 50 μM
# Description: KU-19-19 (DSMZ no. ACC 395), CAL-29 (DSMZ no. ACC 515), 647-V (DSMZ no. ACC 414), RT-4 (DSMZ no. ACC 412), and RT-112 (DSMZ no. ACC 418) bladder cancer cell lines were obtained from the Leibniz Institute DSMZ (German Collection of Microorganisms and Cell Cultures). Human TRPV3 (NM_145068, purchased from OriGene) and mouse TRPV3 (NM_001371006), rat TRPV1, mouse TRPV2, mouse TRPV4, human TRPM2, human TRPM8, and human TRPA1 were stably transfected in HEK293 cells as described before.[27] […]
# All fluorometric Ca^2+ assays were performed in HBS buffer at room temperature. […] For the primary compound screening and the generation of concentration-response analyses, a robotic liquid handling station (Freedom Evo 150; Tecan) with a built-in custom-made fluorescence plate imager was used. […] Fluorescence was excited using a 470-nm light-emitting diode, and emitted light was imaged through a 515-nm–long pass filter with a cooled Zyla 5.5 camera (Andor). Fluorescence was recorded and processed under the control of the μ-Manager 2.0 gamma software (https://micro-manager.org.[28]). After recording baseline fluorescence, compounds were dispensed into the wells via the liquid handling device. […] For further analysis, fluorescence signals were calculated for each well, corrected for background intensities and normalized to the initial signals. […]
structure (smiles),measurement,value
COC(=O)C12CN(Cc3ccccc3)CC1(C(=O)OC)CN(Cc1ccccc1)C2 (stereo not shown) [AV3-1],effect on TRPV2,no effect
